In patent US9938261B2, “Heterocyclic compounds and methods of use thereof” (AMBIT BIOSCIENCES CORPORATION, priority 2011, dated 2018):
Counter-ions that a name gives are not always drawn. Like-named read-outs stand apart in the source and are kept apart here.

Assays:
[1] = molecular target: T1, FLT3 (Homo sapiens, UniProt P36888); assay: Competition binding assay, FLT3 Kd
T1 construct: made in house
T1 sequence (P36888 27-993): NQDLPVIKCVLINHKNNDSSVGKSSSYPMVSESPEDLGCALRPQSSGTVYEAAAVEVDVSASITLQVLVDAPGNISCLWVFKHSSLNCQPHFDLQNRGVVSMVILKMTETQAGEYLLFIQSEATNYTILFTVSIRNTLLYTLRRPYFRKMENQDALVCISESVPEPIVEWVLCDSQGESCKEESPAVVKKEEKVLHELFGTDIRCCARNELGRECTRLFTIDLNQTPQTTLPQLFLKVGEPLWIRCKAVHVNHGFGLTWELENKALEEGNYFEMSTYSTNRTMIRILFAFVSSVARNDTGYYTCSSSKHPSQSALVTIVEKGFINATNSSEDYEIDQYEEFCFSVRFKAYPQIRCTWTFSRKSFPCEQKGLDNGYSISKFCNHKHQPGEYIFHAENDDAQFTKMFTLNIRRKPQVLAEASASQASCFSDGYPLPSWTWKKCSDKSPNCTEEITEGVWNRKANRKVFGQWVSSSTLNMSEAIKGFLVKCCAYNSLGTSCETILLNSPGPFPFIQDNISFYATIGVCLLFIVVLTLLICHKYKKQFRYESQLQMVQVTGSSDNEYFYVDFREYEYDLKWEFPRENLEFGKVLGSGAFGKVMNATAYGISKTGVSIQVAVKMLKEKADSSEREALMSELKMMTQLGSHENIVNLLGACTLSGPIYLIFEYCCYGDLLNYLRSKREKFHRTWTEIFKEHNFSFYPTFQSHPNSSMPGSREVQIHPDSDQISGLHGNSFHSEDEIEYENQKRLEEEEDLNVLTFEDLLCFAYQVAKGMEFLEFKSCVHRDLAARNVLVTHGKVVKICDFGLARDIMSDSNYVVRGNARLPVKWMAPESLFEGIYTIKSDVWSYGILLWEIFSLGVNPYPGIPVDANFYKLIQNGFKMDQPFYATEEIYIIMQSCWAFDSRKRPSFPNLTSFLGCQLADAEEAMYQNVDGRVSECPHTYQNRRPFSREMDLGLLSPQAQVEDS
Summary of the method: (§1)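 Read-out is quantitative PCR of kinase recovered from affinity beads after competition with test compound. Binding reached equilibrium over 1 hour at room temperature; Kd values come from eleven-point threefold serial dilutions.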

[2] = molecular target: T2, CSF1R (Homo sapiens, UniProt P07333); assay: HEK293 CSF1R phosphorylation MSD assay; format: cell-based; parameters: expressed in transfected cells; host or cells: HEK293; conditions: read-out: HEK293 pCSF1R M-CSF MSD:IC50
Summary of the method: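 HEK293 cells expressing CSF1R-FKBP were pretreated 2 h at 37° C with 9 half-log concentrations of compound (0.5% DMSO final), then stimulated 5 min with 50 ng/mL human M-CSF. Lysates captured on biotin-FK506 plates; phosphotyrosine detected by MSD electrochemiluminescence. IC50 versus DMSO, averaged from duplicate plates.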

[3] = test system: M-NFS-60 cells; assay: M-NFS-60 cell proliferation assay (Alamar Blue); format: cell-based, mouse; conditions: Mus musculus, read-out: CSF1R M-NFS-60 CTB:IC50
Summary of the method: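 Mouse M-NFS-60 cells growing on 20 ng/mL M-CSF in RPMI/10% FBS were exposed to compounds (9 half-log concentrations, 0.5% DMSO) for 72 h at 37 °C. Viability read by Alamar Blue fluorescence (ex 560/em 590 nm, 3 h). IC50 = 50% proliferation inhibition versus control, mean of duplicates.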

[4] = molecular target: T3, PDGFRβ (Homo sapiens, UniProt P09619); assay: Competition binding assay, PDGFRβ Kd
T3 construct: made in house
Summary of the method: as §1

[5] = molecular target: T4, KIT (Homo sapiens, UniProt P10721); assay: Competition binding assay, KIT Kd
T4 construct: made in house
Summary of the method: as §1

[6] = molecular target: T2, CSF1R; assay: Competition binding assay, CSF1R Kd; parameters: made in house
Summary of the method: as §1

[7] = 2 h compound, human M-CSF 50 ng/mL for 5 min
[8] = 72 hours incubation, M-CSF 20 ng/mL
[9] = HEK293 cells, M-CSF stimulated CSF1R phosphorylation, MSD

T3 sequence (P09619 33-1106): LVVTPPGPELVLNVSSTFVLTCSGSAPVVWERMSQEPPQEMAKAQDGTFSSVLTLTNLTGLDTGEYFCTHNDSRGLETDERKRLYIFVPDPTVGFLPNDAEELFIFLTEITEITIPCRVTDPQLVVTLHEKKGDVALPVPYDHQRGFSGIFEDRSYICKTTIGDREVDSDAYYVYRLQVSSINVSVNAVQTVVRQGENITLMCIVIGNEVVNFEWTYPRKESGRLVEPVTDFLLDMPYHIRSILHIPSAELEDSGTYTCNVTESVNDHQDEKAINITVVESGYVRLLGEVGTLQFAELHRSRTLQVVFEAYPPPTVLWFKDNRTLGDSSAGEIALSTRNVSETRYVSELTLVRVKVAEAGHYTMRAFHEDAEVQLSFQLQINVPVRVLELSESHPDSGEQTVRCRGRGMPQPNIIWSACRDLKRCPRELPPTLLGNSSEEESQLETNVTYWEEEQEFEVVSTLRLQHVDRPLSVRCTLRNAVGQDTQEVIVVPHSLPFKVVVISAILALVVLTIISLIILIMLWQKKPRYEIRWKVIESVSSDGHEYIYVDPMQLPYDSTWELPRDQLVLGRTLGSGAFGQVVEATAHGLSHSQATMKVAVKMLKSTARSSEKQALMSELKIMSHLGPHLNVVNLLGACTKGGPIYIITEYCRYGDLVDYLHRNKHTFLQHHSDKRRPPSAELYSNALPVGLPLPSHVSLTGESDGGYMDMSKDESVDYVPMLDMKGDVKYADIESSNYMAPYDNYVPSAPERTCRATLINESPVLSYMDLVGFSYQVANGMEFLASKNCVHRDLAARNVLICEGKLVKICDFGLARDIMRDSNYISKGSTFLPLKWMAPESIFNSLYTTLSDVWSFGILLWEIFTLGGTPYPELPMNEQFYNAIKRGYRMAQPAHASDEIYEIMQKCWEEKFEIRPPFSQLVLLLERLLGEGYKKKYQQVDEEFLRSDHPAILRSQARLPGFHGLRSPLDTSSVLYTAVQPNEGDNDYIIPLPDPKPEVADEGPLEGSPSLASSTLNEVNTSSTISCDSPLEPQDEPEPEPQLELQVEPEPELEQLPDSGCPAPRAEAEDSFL
T2 sequence (P07333 20-972): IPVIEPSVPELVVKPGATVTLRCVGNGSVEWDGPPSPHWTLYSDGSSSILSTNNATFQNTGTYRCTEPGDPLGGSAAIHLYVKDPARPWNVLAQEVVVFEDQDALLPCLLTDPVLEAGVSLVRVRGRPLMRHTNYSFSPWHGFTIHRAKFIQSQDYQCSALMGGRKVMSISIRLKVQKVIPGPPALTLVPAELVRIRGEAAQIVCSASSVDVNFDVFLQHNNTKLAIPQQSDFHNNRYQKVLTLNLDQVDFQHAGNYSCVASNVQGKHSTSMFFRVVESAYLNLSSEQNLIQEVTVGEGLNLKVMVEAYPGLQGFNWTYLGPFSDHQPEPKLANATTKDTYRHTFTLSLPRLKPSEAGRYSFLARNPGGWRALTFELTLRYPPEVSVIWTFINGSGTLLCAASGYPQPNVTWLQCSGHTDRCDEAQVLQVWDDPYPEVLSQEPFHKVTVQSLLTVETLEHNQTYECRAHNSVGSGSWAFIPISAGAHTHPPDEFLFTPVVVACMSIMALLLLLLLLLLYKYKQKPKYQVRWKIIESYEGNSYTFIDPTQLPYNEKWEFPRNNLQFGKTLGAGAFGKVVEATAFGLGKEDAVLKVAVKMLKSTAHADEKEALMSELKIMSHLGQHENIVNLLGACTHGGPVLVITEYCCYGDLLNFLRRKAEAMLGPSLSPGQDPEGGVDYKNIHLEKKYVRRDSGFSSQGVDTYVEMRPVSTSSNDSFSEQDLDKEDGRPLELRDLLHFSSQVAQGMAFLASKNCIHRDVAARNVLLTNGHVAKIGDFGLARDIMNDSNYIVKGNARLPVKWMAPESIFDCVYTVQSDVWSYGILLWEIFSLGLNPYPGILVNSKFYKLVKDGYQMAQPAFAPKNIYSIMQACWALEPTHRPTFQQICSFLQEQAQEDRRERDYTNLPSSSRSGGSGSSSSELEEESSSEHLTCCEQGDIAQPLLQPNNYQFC
T4 sequence (P10721 26-976): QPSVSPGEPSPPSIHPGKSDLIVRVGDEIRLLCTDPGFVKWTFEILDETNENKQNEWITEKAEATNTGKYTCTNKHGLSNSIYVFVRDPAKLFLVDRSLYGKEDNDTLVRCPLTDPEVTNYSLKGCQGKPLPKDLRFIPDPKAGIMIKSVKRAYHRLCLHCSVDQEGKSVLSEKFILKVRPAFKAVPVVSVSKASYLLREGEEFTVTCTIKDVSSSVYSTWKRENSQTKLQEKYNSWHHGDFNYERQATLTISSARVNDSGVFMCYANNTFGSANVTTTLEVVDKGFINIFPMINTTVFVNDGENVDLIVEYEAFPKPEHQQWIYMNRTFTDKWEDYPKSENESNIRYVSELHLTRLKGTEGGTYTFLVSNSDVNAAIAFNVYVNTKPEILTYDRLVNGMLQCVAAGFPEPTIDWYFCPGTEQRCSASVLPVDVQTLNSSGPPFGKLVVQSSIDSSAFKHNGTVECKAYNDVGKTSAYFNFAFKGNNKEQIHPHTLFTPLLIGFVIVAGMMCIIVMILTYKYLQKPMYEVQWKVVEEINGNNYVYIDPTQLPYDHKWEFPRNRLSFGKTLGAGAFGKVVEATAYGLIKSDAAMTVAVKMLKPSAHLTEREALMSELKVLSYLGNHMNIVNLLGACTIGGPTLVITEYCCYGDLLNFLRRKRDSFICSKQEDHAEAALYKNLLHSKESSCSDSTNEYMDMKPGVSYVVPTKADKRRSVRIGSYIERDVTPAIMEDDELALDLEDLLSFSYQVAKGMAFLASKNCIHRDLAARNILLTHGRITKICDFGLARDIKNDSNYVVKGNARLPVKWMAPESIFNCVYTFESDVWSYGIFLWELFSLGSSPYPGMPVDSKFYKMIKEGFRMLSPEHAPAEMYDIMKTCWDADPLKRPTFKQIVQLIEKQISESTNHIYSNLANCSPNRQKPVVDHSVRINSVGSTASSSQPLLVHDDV

Kd [1] [nM] | IC50 [2, 7] [nM] | Kd [4] [nM] | Kd [5] [nM] | Kd [6] [nM] | SMILES | IC50 [3, 8] [nM] | Kd ([1]; competition binding) [nM] | IC50 [2, 9] [nM] | IC50 ([3]; M-NFS-60 cell proliferation) [nM] | Kd ([4]; competition binding) [nM] | Kd ([5]; competition binding) [nM] | Kd ([6]; competition binding) [nM]
≤ 200 | 50 to 200 | ≤ 50 | ≤ 100 | 5 to 20 | COc1cc2ncn(Cc3ccc4nc(NCC5CCCCC5)sc4c3)c2cc1OC [Example 28, N-(cyclohexylmethyl)-6-((5,6-dimethoxy-1H-benzo[d]imidazol-1-yl)methyl)benzo[d]thiazol-2-amine] | 50 to 400 | – | – | – | – | – | –
1000 to 5000 | 200 to 500 | 500 to 2000 | 500 to 2000 | 5 to 20 | COc1cc2ncn(Cc3ccc4nc(NC[C@H]5CCCO5)sc4c3)c2cc1OC [Example 8, (R)-6-((5,6-dimethoxy-1H-benzo[d]imidazol-1-yl)methyl)-N-((tetrahydrofuran-2-yl)methyl)benzo[d]thiazol-2-amine] | > 1500 | – | – | – | – | – | –
≤ 200 | > 500 | 50 to 500 | 100 to 500 | > 50 | NCc1cnc2c(c1)ncn2Cc1ccc2nc(N[C@@H]3CCCC[C@H]3O)sc2c1 [Example 91, (1R,2R)-2-((6-((6-(aminomethyl)-3H-imidazo[4,5-b]pyridin-3-yl)methyl)benzo[d]thiazol-2-yl)amino)cyclohexanol acetate] | 50 to 400 | – | – | – | – | – | –
200 to 1000 | > 500 | > 2000 | > 2000 | 5 to 20 | Nc1nc2cccnc2n1Cc1ccc2nc(N[C@@H]3CCCC[C@H]3O)sc2c1 [Example 26, 3-((2-(((1R,2R)-2-hydroxycyclohexyl)amino)benzo[d]thiazol-6-yl)methyl)-3H-imidazo[4,5-b]pyridin-2-aminium acetic acid] | > 1500 | – | – | – | – | – | –
> 5000 | > 500 | > 2000 | > 2000 | > 50 | COc1cc2ncn(Cc3ccc4nc(NC5CCOC5)sc4c3)c2cc1OC (racemic) [Example 25, (R,S)-6-((5,6-dimethoxy-1H-benzo[d]imidazol-1-yl)methyl)-N-(tetrahydrofuran-3-yl)benzo[d]thiazol-2-amine acetic acid] | > 1500 | – | – | – | – | – | –
1000 to 5000 | ≤ 50 | 50 to 500 | ≤ 100 | ≤ 5 | O[C@@H]1CCCC[C@H]1Nc1nc2ccc(Cn3cnc4cc(F)cnc43)cc2s1 [Example 70, (1R,2R)-2-((6-((6-fluoro-3H-imidazo[4,5-b]pyridin-3-yl)methyl)benzo[d]thiazol-2-yl)amino)cyclohexanol] | 50 to 400 | – | – | – | – | – | –
1000 to 5000 | > 500 | 50 to 500 | 100 to 500 | ≤ 5 | COc1cc2ncn(Cc3ccc4nc(Nc5ccccc5O)sc4c3)c2cc1OC [Example 31, 2-((6-((5,6-dimethoxy-1H-benzo[d]imidazol-1-yl)methyl)benzo[d]thiazol-2-yl)amino)phenol] | > 1500 | – | – | – | – | – | –
– | – | – | – | – | CN(C)CC(=O)c1cnc2c(c1)ncn2Cc1ccc2nc(N[C@@H]3CCCC[C@H]3O)sc2c1 [Example 116, 2-(dimethylamino)-1-(3-((2-(((1R,2R)-2-hydroxycyclohexyl)amino)benzo[d]thiazol-6-yl)methyl)-3H-imidazo[4,5-b]pyridine-6-yl)ethanone acetate salt] | – | 200 to 1000 | 50 to 200 | > 1500 | 50 to 500 | 100 to 500 | 5 to 20
200 to 1000 | 200 to 500 | 50 to 500 | > 2000 | 5 to 20 | O[C@@H]1CCCC[C@H]1Nc1nc2ccc(Cc3c[nH]c4ncccc34)cc2s1 [Example 17, (1R,2R)-2-((6-((1H-pyrrolo[2,3-b]pyridin-3-yl)methyl)benzo[d]thiazol-2-yl)amino)cyclohexanol] | 400 to 1500 | – | – | – | – | – | –
1000 to 5000 | ≤ 50 | 50 to 500 | 100 to 500 | 5 to 20 | COc1ccc2c(c1)ncn2Cc1ccc2nc(N[C@@H]3CCCC[C@H]3O)sc2c1 [Example 68, (1R,2R)-2-((6-((5-methoxy-1H-benzo[d]imidazol-1-yl)methyl)benzo[d]thiazol-2-yl)amino)cyclohexanol] | ≤ 50 | – | – | – | – | – | –
> 5000 | 50 to 200 | 500 to 2000 | > 2000 | 5 to 20 | O[C@@H]1CCCC[C@H]1Nc1nc2ccc(Cn3cnc4cnccc43)cc2s1 [Example 72, (1R,2R)-2-((6-((1H-imidazo[4,5-c]pyridin-1-yl)methyl)benzo[d]thiazol-2-yl)amino)cyclohexanol] | 400 to 1500 | – | – | – | – | – | –
> 5000 | 200 to 500 | > 2000 | 500 to 2000 | 20 to 50 | COc1cc2ncn(Cc3ccc4nc(NC5CCOCC5)sc4c3)c2cc1OC [Example 15, 6-((5,6-dimethoxy-1H-benzo[d]imidazol-1-yl)methyl)-N-(tetrahydro-2H-pyran-4-yl)benzo[d]thiazol-2-amine] | > 1500 | – | – | – | – | – | –
1000 to 5000 | 50 to 200 | ≤ 50 | ≤ 100 | 5 to 20 | CNC(=O)c1cnc2c(c1)ncn2Cc1ccc2nc(N[C@@H]3CCCC[C@H]3O)sc2c1 [Example 89, 3-((2-(((1R,2R)-2-hydroxycyclohexyl)amino)benzo[d]thiazol-6-yl)methyl)-N-methyl-3H-imidazo[4,5-b]pyridine-6-carboxamide] | 50 to 400 | – | – | – | – | – | –
1000 to 5000 | 50 to 200 | 50 to 500 | ≤ 100 | 5 to 20 | COc1ccc2ncn(Cc3ccc4nc(N[C@@H]5CCCC[C@H]5O)sc4c3)c2c1 [Example 67, (1R,2R)-2-((6-((6-methoxy-1H-benzo[d]imidazol-1-yl)methyl)benzo[d]thiazol-2-yl)amino)cyclohexanol] | 50 to 400 | – | – | – | – | – | –
≤ 200 | ≤ 50 | 50 to 500 | ≤ 100 | ≤ 5 | COc1ccc2ncn(Cc3ccc4nc(N[C@@H]5CCCC[C@H]5O)sc4c3)c2n1 [Example 23, (1R,2R)-2-((6-((5-methoxy-3H-imidazo[4,5-b]pyridin-3-yl)methyl)benzo[d]thiazol-2-yl)amino)cyclohexanol] | 50 to 400 | – | – | – | – | – | –
> 5000 | > 500 | > 2000 | > 2000 | > 50 | COc1cc2ncn(Cc3ccc4nc(NC5CCN(C(C)=O)CC5)sc4c3)c2cc1OC [Example 24, 1-(4-((6-((5,6-dimethoxy-1H-benzo[d]imidazol-1-yl)methyl)benzo[d]thiazol-2-yl)amino)piperidin-1-yl)ethanone acetic acid] | > 1500 | – | – | – | – | – | –
– | – | – | – | – | O[C@@H]1CCCC[C@H]1Nc1nc2ccc(Cn3cnc4cc(C5=CCNCC5)ccc43)cc2s1 [Example 225, (1R,2R)-2-((6-((5-(1,2,3,6-tetrahydropyridin-4-yl)-1H-benzo[d]imidazol-1-yl)methyl)benzo[d]thiazol-2-yl)amino)cyclohexanol] | – | 200 to 1000 | 50 to 200 | 400 to 1500 | ≤ 50 | ≤ 100 | ≤ 5
200 to 1000 | ≤ 50 | 50 to 500 | 100 to 500 | 5 to 20 | COc1cc2ncn(Cc3ccc4nc(N[C@@H]5CCCCC5O)sc4c3)c2cc1OC (stereo in doubt) [Example 2, (1R,2R)-2-((6-((5,6-dimethoxy-1H-benzo[d]imidazol-1-yl)methyl)benzo[d]thiazol-2-yl)amino)cyclohexanol] | 50 to 400 | – | – | – | – | – | –
